Experimental findings from publication PMC8836147, “Design, Synthesis and Antifungal/Nematicidal Activity of Novel 1,2,4-Oxadiazole Derivatives Containing Amide Fragments” (International Journal of Molecular Sciences, 2022) are described below.

One experiment relates to B. xylophilus. In words: microbe, parasite or virus in culture. Conditions: Bursaphelenchus xylophilus, 48 h, read-out: Corrected Mortality Rate ± SD (%) B. xylophilus. From the text: (§1) M. incognita (parasitic on tomato plants), A. besseyi (potato dextrose agar–Botrytis cinerea breeding), B. xylophilus (potato dextrose agar–Botrytis cinerea breeding), and C. elegans (nematode growth medium–inactivated Escherichia coli OP50 cultivation) were provided by the Fine Chemical Research and Development Center of Guizhou University (Guizhou, China). The methodology used for the nematocidal bioassays of these target compounds was modified in the light of the conventional methods reported in the previously published literature. The nematicidal activity of the target compounds against four nematodes was determined using 48-well biochemical culture dishes. All of the compounds were dissolved with 100 μL DMF and were diluted with 1% Tween-80 to obtain 200 and 50 μg/mL concentrations for the bioassays. Fosthiazate and tioxazafen were used as positive controls at the same concentrations, and a negative control group was prepared without compounds using the same methodology. An amount of 10 µL of nematode suspension (about 50 nematodes) and 300 µL of the trial solution were added to corresponding hole, and each treatment was set to three repetitions. All of the 48-well plates were placed in a biochemical incubator at 27 °C for dark light culture. […] Corrected mortality (%) = [(mortality of treatment % − mortality of negative control %)/(1 − mortality of negative control %)] × 100%(3)

The next experiment concerns A. besseyi. In words: microbe, parasite or virus in culture. Conditions: Aphelenchoides besseyi, 48 h, read-out: Corrected Mortality Rate ± SD (%) A. besseyi.
Text: as §1

The test system of another experiment is M. incognita. Nature of the experiment: microbe, parasite or virus in culture. Conditions: Meloidogyne incognita, 48 h, read-out: Corrected Mortality Rate ± SD (%) M. incognita.
Text: as §1

For a further experiment, the system named is C. elegans. In words: microbe, parasite or virus in culture. The settings on record: Caenorhabditis elegans, 48 h, read-out: Corrected Mortality Rate ± SD (%) C. elegans.
Text: as §1

The test system of another experiment is S. sclerotiorum. In words: In vitro mycelium growth inhibition test. Type of experiment: cell-based. Conditions: Sclerotinia sclerotiorum; 50 μg/mL; mycelial growth; mean ± SD of three replicates; read-out: Inhibition Rate (%) S. sclerotiorum. On the procedure:
(§2) B. cinerea and S. scleotiorum were kindly provided by the Department of Pesticides, College of Plant Protection, Nanjing Agricultural University (Nanjing, China). All compounds were evaluated for mycelium growth inhibition tests against the two plant pathogenic fungi mentioned in previous reports. These two fungi were inoculated on potato dextrose agar (PDA) plates and were grown in biochemical incubators at 25 ± 1 °C for 2–4 days. The new mycelium was used to determine the antifungal activity. The target compounds were dissolved in 100 µL DMF, and they were then added into the PDA media to make the concentration 50 µg/mL. Mycelia dishes of about 5 mm in diameter were cut from the culture medium. Mycelium were picked up with a sterile inoculation needle, and the sample was inoculated in the middle of a PDA plate in a sterile environment. Afterwards, a preliminary screening of fungal activity was performed. […] Each test was carried out three times. The radial growth of the fungal colonies was gauged and recorded when the diameters of the blank control mycelia reached 5.0–5.5 cm. […] The final data were analyzed using SPSS v.25.0 (IBM, New York, NY, USA). The following formula was used to calculate the fungi inhibition rate. Inhibition rate (%) = [(Mycelium diameter of negative control − Mycelium diameter of treatment)/(Mycelium diameter of negative control − 0.5)] × 100%(1)

The next experiment relates to B. cinerea. In words: In vitro mycelium growth inhibition test. Type of experiment: cell-based. Conditions: Botrytis cinerea; 50 μg/mL; mycelial growth; mean ± SD of three replicates; read-out: Inhibition Rate (%) B. cinerea. As to the method: as §2

In general, mortality refers to the percentage killed. In the case of `c1ccc(-c2noc(-c3cccs3)n2)cc1` [Tioxazafen, tioxazafen, reference compound], the mortality at 50 µg/mL was 0% with B. xylophilus, 8.8 ± 2.4% in the experiment on A. besseyi, 12.6 ± 3.2% in the experiment on M. incognita and 90.4 ± 0.7% with C. elegans. For the same compound, the mortality at 200 µg/mL came out at 13.5 ± 1.2% with B. xylophilus, 61.4 ± 1.7% with A. besseyi, 23.9 ± 3.3% in the experiment on M. incognita and 100% with C. elegans.

By inhibition is commonly meant the share of the control response that was lost under treatment. In the case of `O=C(NCCc1ncc(C(F)(F)F)cc1Cl)c1nc(-c2ccc(Br)nc2)no1` [Compound F18], the mortality at 50 µg/mL stood at 0% in the experiment with B. xylophilus, 0% with A. besseyi, 0% in the experiment on M. incognita and 53.6 ± 2.4% in the experiment on C. elegans. Besides, the mortality at 200 µg/mL was 15.1 ± 1.2% in the experiment with B. xylophilus, 23 ± 2.3% in the experiment with A. besseyi, 36.7 ± 2.1% in the experiment on M. incognita and 90 ± 2.7% with C. elegans. In addition, the inhibition at 50 µg/mL with S. sclerotiorum is 34.9 ± 1.1%; with B. cinerea it was 55.9 ± 1.3%.

For `O=C(NCCc1ncc(C(F)(F)F)cc1Cl)c1nc(-c2ncc(C(F)(F)F)cc2Cl)no1` [Compound F22], the mortality at 50 µg/mL came to 0% in the experiment on B. xylophilus, 0% in the experiment with A. besseyi, 0% in the experiment with M. incognita and 45.7 ± 2.3% in the experiment on C. elegans. In addition, the mortality at 200 µg/mL in the experiment on B. xylophilus came out at 17.1 ± 2.2%; in the experiment on A. besseyi it was 26.5 ± 2.1%; with M. incognita, 18.3 ± 1.7%; in the experiment on C. elegans, 80.2 ± 1.5%. For the same compound, the figures for the inhibition at 50 µg/mL with S. sclerotiorum and with B. cinerea were 37.6 ± 1.9% and 45.2 ± 0.9%, respectively.

Turning to `O=C(NCCc1ncc(C(F)(F)F)cc1Cl)c1nc(-c2ccccc2)no1` [Compound F2, N-(2-(3-chloro-5-(trifluoromethyl)pyridin-2-yl)ethyl)-3-phenyl-1,2,4-oxadiazole-5-carboxamide], the mortality at 50 µg/mL in the experiment on B. xylophilus amounted to 0%; with A. besseyi, 0%; in the experiment with M. incognita it was 7.4 ± 3.2%; in the experiment on C. elegans, 10.3 ± 1.4%. Also, the mortality at 200 µg/mL with B. xylophilus is 5.5 ± 1.6%; with A. besseyi it was 15.1 ± 1.6%; in the experiment with M. incognita, 42.6 ± 3.6%; with C. elegans, 46.7 ± 2.6%. The inhibition at 50 µg/mL in the experiment on S. sclerotiorum was 48.6 ± 1.6%; in the experiment on B. cinerea, 23.6 ± 0.6%.

In the case of `O=C(NCCc1ccccn1)c1nc(-c2ccc(Br)nc2)no1` [Compound F17], the mortality at 50 µg/mL in the experiment with B. xylophilus came out at 0%; in the experiment on A. besseyi, 0%; in the experiment with M. incognita it was 0%; in the experiment with C. elegans it was 54.2 ± 3.1%. The mortality at 200 µg/mL in the experiment on B. xylophilus is 14.1 ± 1.9%; in the experiment with A. besseyi, 20.2 ± 1.2%; with M. incognita, 33.5 ± 1.4%; in the experiment with C. elegans, 89.7 ± 1.5%. Moreover, the inhibition at 50 µg/mL in the experiment with S. sclerotiorum was determined as 10.1 ± 1.2%; in the experiment with B. cinerea, 27.6 ± 1.4%.

As to `O=C(NCc1ccc(F)cc1F)c1nc(-c2ccc(Br)nc2)no1` [Compound F19], the mortality at 50 µg/mL in the experiment with B. xylophilus is 0%; with A. besseyi it was 0%; with M. incognita it was 7.9 ± 1.2%; in the experiment on C. elegans it was 64.1 ± 1.2%. In addition, the mortality at 200 µg/mL with B. xylophilus stood at 30.7 ± 1.1%; in the experiment on A. besseyi it was 23.5 ± 2.6%; in the experiment on M. incognita, 30.7 ± 1.1%; in the experiment on C. elegans, 93.5 ± 2.6%. Besides, the inhibition at 50 µg/mL was 35.8 ± 0.8% with S. sclerotiorum and 42.2 ± 0.2% in the experiment on B. cinerea.

`O=C(NCc1ccc(F)cc1F)c1nc(-c2ncc(C(F)(F)F)cc2Cl)no1` [Compound F23]: the mortality at 50 µg/mL in the experiment on B. xylophilus was determined as 0%; in the experiment with A. besseyi, 0%; with M. incognita it was 0%; in the experiment on C. elegans, 10.6 ± 1.2%. In addition, the mortality at 200 µg/mL was 20.3 ± 1.4% in the experiment with B. xylophilus, 21.5 ± 2.2% in the experiment with A. besseyi, 19.1 ± 2.2% in the experiment with M. incognita and 27.6 ± 1.2% with C. elegans. Besides, the inhibition at 50 µg/mL with S. sclerotiorum worked out at 34.6 ± 0.1%; with B. cinerea it was 41.5 ± 0.5%.

Take `O=C(NCCc1ccccn1)c1nc(-c2ncc(C(F)(F)F)cc2Cl)no1` [Compound F21]: the mortality at 50 µg/mL with B. xylophilus came to 0%; in the experiment with A. besseyi, 0%; in the experiment with M. incognita, 0%; in the experiment with C. elegans it was 32.5 ± 2%. Also, the mortality at 200 µg/mL in the experiment on B. xylophilus was determined as 7.1 ± 1.9%; in the experiment on A. besseyi, 13 ± 0.5%; in the experiment on M. incognita, 23.5 ± 2.4%; with C. elegans it was 76.8 ± 0.9%. Further, the inhibition at 50 µg/mL came out at 35.1 ± 0.1% in the experiment with S. sclerotiorum and 38.8 ± 0.7% in the experiment on B. cinerea.

On to `CCOP(=O)(SC(C)CC)N1CCSC1=O` (stereo not shown) [Fosthiazate, fosthiazate, reference compound], for which the mortality at 50 µg/mL with B. xylophilus is 38.8 ± 1.3%; in the experiment on A. besseyi, 6.1 ± 3.1%; in the experiment with M. incognita, 91.4 ± 2.5%; in the experiment on C. elegans, 100%. Further, the mortality at 200 µg/mL in the experiment with B. xylophilus stood at 72.4 ± 1.9%; in the experiment with A. besseyi it was 38.4 ± 1.9%; in the experiment on M. incognita it was 100%; in the experiment with C. elegans, 100%.

In the case of `O=C(Nc1ccc(Cl)cc1Cl)c1nc(-c2ccc(Br)nc2)no1` [Compound F20], the mortality at 50 µg/mL in the experiment on B. xylophilus is 0%; in the experiment on A. besseyi, 0%; with M. incognita it was 8.6 ± 2.2%; in the experiment on C. elegans, 81.4 ± 1.5%. Moreover, the mortality at 200 µg/mL was determined as 41.2 ± 1.3% in the experiment on B. xylophilus, 26.4 ± 2.5% in the experiment on A. besseyi, 41.2 ± 1.3% in the experiment on M. incognita and 100% in the experiment with C. elegans. Besides, the values for the inhibition at 50 µg/mL with S. sclerotiorum and with B. cinerea were 13.8 ± 0.5% and 55.8 ± 0.1%, respectively.

On to `Cc1ccc(-c2noc(C(=O)NCc3ccc(F)cc3F)n2)cc1` [Compound F7, N-(2,4-difluorobenzyl)-3-(p-tolyl)-1,2,4-oxadiazole-5-carboxamide], for which the mortality at 50 µg/mL is 0% in the experiment on B. xylophilus, 0% with A. besseyi, 5.3 ± 1.1% in the experiment on M. incognita and 68.2 ± 2.3% in the experiment with C. elegans. Besides, the mortality at 200 µg/mL was 28.1 ± 2.4% with B. xylophilus, 12.2 ± 2.1% in the experiment on A. besseyi, 24.9 ± 3.2% in the experiment on M. incognita and 91.9 ± 2.5% in the experiment with C. elegans. Moreover, the inhibition at 50 µg/mL was 56.4 ± 0.1% in the experiment on S. sclerotiorum and 46.4 ± 0.8% with B. cinerea.

Regarding `O=C(Nc1ccc(Cl)cc1Cl)c1nc(-c2ccc(Cl)cc2)no1` [Compound F12, 3-(4-chlorophenyl)-N-(2,4-dichlorophenyl)-1,2,4-oxadiazole-5-carboxamide], the mortality at 50 µg/mL with B. xylophilus came to 0%; with A. besseyi it was 0%; in the experiment on M. incognita, 13.8 ± 2.3%; in the experiment with C. elegans it was 8.6 ± 1.6%. Also, the mortality at 200 µg/mL stood at 20.8 ± 2.5% with B. xylophilus, 18.8 ± 1.1% with A. besseyi, 54.8 ± 2.5% in the experiment on M. incognita and 47.6 ± 1.2% in the experiment on C. elegans. Moreover, the inhibition at 50 µg/mL in the experiment on S. sclerotiorum amounted to 24.8 ± 1.4%; with B. cinerea, 29.1 ± 1.4%.

Regarding `O=C(NCc1ccc(F)cc1F)c1nc(-c2ccc(Cl)cc2)no1` [Compound F11, 3-(4-chlorophenyl)-N-(2,4-difluorobenzyl)-1,2,4-oxadiazole-5-carboxamide], the mortality at 50 µg/mL in the experiment on B. xylophilus came to 0%; in the experiment on A. besseyi it was 0%; with M. incognita, 24.8 ± 2.2%; in the experiment with C. elegans, 10.6 ± 1.3%. Moreover, the mortality at 200 µg/mL in the experiment with B. xylophilus was found to be 23.2 ± 2.1%; in the experiment with A. besseyi, 19.8 ± 2.1%; in the experiment on M. incognita, 93.2 ± 2.1%; in the experiment on C. elegans it was 73.6 ± 1.7%. Besides, the inhibition at 50 µg/mL amounted to 44.9 ± 0.9% in the experiment with S. sclerotiorum and 44.2 ± 1.2% in the experiment on B. cinerea.

For `O=C(NCCc1ccccn1)c1nc(-c2cccs2)no1` [Compound F13, N -(2-(pyridin-2-yl)ethyl)-3-(thiophen-2-yl)-1,2,4-oxadiazole-5-carboxamide], the mortality at 50 µg/mL with B. xylophilus stood at 0%; in the experiment on A. besseyi it was 0%; in the experiment on M. incognita it was 0%; in the experiment with C. elegans, 70.4 ± 2.6%. The mortality at 200 µg/mL was 9.1 ± 1.5% in the experiment with B. xylophilus, 21.7 ± 2.4% with A. besseyi, 11.6 ± 1.1% with M. incognita and 100% with C. elegans. Besides, the inhibition at 50 µg/mL is 41.1 ± 0.1% in the experiment with S. sclerotiorum and 27.3 ± 0.4% with B. cinerea.
